This data set can be described thus: Administration of clenbuterol to patients with autistic symptoms (case examples). It is filed as in vivo, autistic children. The procedure:
A patient with autistic symptoms in the form of disorders of social integration, verbal and non-verbal communication, play disorders and concomitant anxiety, especially when changing environment, was administered clenbuterol at a dose of ¼ tablet containing 20 μg of clenbuterol once daily for a period of 3 months.
A patient with pediatric autism and cerebral palsy was administered the medication at a dose of ¼ of 20 μg tablet twice daily for a period of 12 months.
A patient with early pediatric autism, psychomotor hyperactivity syndrome and speech development delay was administered clenbuterol at a dose of ¼ of 20 μg tablet once daily for a period of 12 months.
It has been assumed that clenbuterol, modulating the brain neurotransmitter systems, affects also the endocrine and immunological system. As a result, alleviation of communication disorders and improved contact with surroundings is observed in autistic children.

Regarding `CC(C)(C)NCC(O)c1cc(Cl)c(N)c(Cl)c1` (racemic) [clenbuterol, (RS)-1-(4-amino-3,5-dichlorophenyl)-2-(tert-butylamino)ethanol], the “Overall effects observed in autistic children” value (administration at very small doses to autistic children) was “Improved contact with surroundings, better concentration, improved ability to plan a specific task, improved understanding, calming, and reduced psychomotor anxiety were observed”. In addition, the “Effect on functional disorders related to ASD” value (administration of effective amounts of clenbuterol or its pharmaceutically effective salt) is on record as “seems to practically alleviate functional disorders related to ASD”. In addition, where the note is “long-term administration of clenbuterol or its pharmaceutically acceptable salt”, the Adverse effects entry is reported as “no adverse effects associated with medications previously used in treatment of autism were observed”. Further, the “Change in autistic symptoms after therapy (interest in environment, contact with surroundings, anxiety)” value (patient with autistic symptoms, 1/4 tablet containing 20 μg once daily for 3 months) was “increased interest in the environment was observed; the child's contact with surroundings improved and its anxiety symptoms decreased”. For the same compound, under “patient with early pediatric autism, psychomotor hyperactivity syndrome and speech development delay, 1/4 of 20 μg tablet once daily for 12 months”, the “Change in autistic symptoms after treatment (speech expression, psychomotor anxiety, grimacing)” value was “Improvement in speech expression was achieved as well as reduction of psychomotor anxiety and grimacing”. Moreover, the “Change in autistic symptoms after treatment (understanding, concentration, attention, speech)” value (patient with pediatric autism and cerebral palsy, 1/4 of 20 μg tablet twice daily for 12 months) is “improvement with respect to understanding, concentration, attention, and speech”.

The record behind these values is patent publication US9364450B2, “Clenbuterol for use in treatment of autism” (STOW[…]. CELESTYNA, priority 2011, dated 2016).
